≈ marks a conversion by molar mass, not a printed value. Calls of active or inactive are those of the source. No cut-off for these calls is given here. Where a SMILES comes first, the peptide text is derived from it. [ ]: non-standard residue; d: D form. MeBmt = C/C=C/C[C@@H](C)[C@@H](O)[C@H](NC)C(=O)O; NMePhg = CN[C@H](C(=O)O)c1ccccc1; NMeT = CN[C@H](C(=O)O)[C@@H](C)O; NMeL = CN[C@@H](CC(C)C)C(=O)O; NMeV = CN[C@H](C(=O)O)C(C)C; dNMeA = CN[C@H](C)C(=O)O; Sar = CNCC(=O)O

A word on the EC50: it is the concentration that produces a half-maximal response. By bioavailability is commonly meant dose-corrected exposure relative to a reference, in per cent. Low readings indicate poor availability, high ones good availability. What is called AUC(0-t) is exposure summed from dosing to a finite time, without extrapolation to infinity. A lower AUC(0-t) goes with less exposure. A word on the solubility: it is the concentration that dissolves in the medium under given conditions. Read a high solubility as a readily soluble substance. For orientation: IC50 means the concentration that inhibits the measured activity by half.

The nature of data set [1]: Inhibition of cyclophilin in Hepatitis C virus assessed as inhibition of viral replicon replication in presence of 10% HSA by qRT-PCR analysis. The arrangement: species or system Hepacivirus hominis. On the technique in general: Replicon systems follow genome replication, usually without infectious particles.
Data set [2] is described as follows: Inhibition of cyclophilin in Hepatitis C virus assessed as inhibition of viral replicon replication in presence of 5% FBS by qRT-PCR analysis. Set-up: species or system Hepacivirus hominis.
A short description of data set [3]: Oral bioavailability in rat. The data set is classed as ADME, organism-based. Conditions: in vivo.
Data set [4] can be described thus: AUC (0 to 24 hrs) in po dosed rat. The data set is classed as ADME, organism-based. The arrangement: time < 24 hr, route oral. Conditions: in vivo.
Data set [5] is described as follows: Aqueous solubility of the compound at pH 6.8. Format: physicochemical.
The subject of the next data set is Splenocyte. The data set is described as follows: Immunosuppressive activity in mouse splenocytes assessed as inhibition of ConA- induced proliferation. Format: functional, cell-based.
Data set [6] in a line: Inhibition of cyclophilin in Hepatitis C virus assessed as inhibition of viral replicon replication by qRT-PCR analysis. The arrangement: species or system Hepacivirus hominis.
For data set [7], the system named is Hepatitis C virus. The experiment in a line: Antiviral activity against Hepatitis C virus genotype 1b infected in humanized liver SCID-Alb/uPA chimeric mouse assessed as reduction in serum HCV RNA level at 3.75 to 30 mg/kg, po bid administered via gavage for 14 days cotreated with peginterferon-alpha2a at 10 ug/kg, sc administered twice a week and measured after 7 days without compound administration post-last dose. The data set is classed as functional, organism-based. Conditions: Hepacivirus hominis, subtype 1b.

For data set [8], the system named is Hepatitis C virus. The experiment in a line: Antiviral activity against Hepatitis C virus genotype 1b infected in humanized liver SCID-Alb/uPA chimeric mouse assessed as reduction in serum HCV RNA level at 3.75 to 30 mg/kg, po bid administered via gavage for 14 days measured after 7 days without compound administration post-last dose. The data set is classed as functional, organism-based. Conditions: Hepacivirus hominis, subtype 1b.

On to `C/C=C/C[C@@H](C)[C@@H](O)[C@H]1C(=O)N[C@@H]([C@@H](C)O)C(=O)N(C)[C@H](C)C(=O)N(C)[C@@H]([C@@H](C)OC(C)(C)C)C(=O)N[C@@H](CC(C)C)C(=O)N(C)[C@@H](CC(C)C)C(=O)N[C@@H](C)C(=O)N[C@H](C)C(=O)N(C)[C@@H](CC(C)C)C(=O)N[C@@H](CC(C)C)C(=O)N(C)[C@@H](C(C)C)C(=O)N1C`, for which the EC50 came to 0.11 µg/mL in data set [1] and 0.03 µg/mL in [2]. In addition, the bioavailability in data set [3] was 74%. The same compound gave an AUC(0-t) at 24 h in [4] of 9450 ng·h/mL. Also, the solubility in data set [5] is < 0.1 µg/mL. For the same compound, the IC50 in the data set on Splenocyte amounted to 1.6 µg/mL (≈ 1.25 µM).
Take `C/C=C/C[C@@H](C)[C@@H](O)[C@H]1C(=O)N[C@@H]([C@@H](C)O)C(=O)N(C)[C@H](C)C(=O)N(C)[C@@H](c2ccccc2)C(=O)N[C@@H](CC(C)C)C(=O)N(C)[C@@H](CC(C)C)C(=O)N[C@@H](C)C(=O)N[C@H](C)C(=O)N(C)[C@@H](CC(C)C)C(=O)N[C@@H](CC(C)C)C(=O)N(C)[C@@H](C(C)C)C(=O)N1C` (cyclo(A[dA][NMeL]L[NMeV][MeBmt]T[dNMeA][NMePhg]L[NMeL])): the EC50 in [6] is 0.084 µg/mL (≈ 0.0671 µM). In the data set on Splenocyte, the IC50 amounted to 1.35 µg/mL (≈ 1.08 µM).
With `C/C=C/C[C@@H](C)[C@@H](O)[C@H]1C(=O)N[C@@H]([C@@H](C)O)C(=O)N(C)[C@H](C)C(=O)N(C)[C@@H](CC(C)C)C(=O)N[C@@H](CC(C)C)C(=O)N(C)[C@@H](CC(C)C)C(=O)N[C@@H](C)C(=O)N[C@H](C)C(=O)N(C)[C@@H](CC(C)C)C(=O)N[C@@H](CC(C)C)C(=O)N(C)[C@@H](C(C)C)C(=O)N1C`, the EC50 in [1] turned out to be 0.35 µg/mL; in data set [2], 0.038 µg/mL; in data set [6], 0.038 µg/mL (≈ 0.0308 µM). Besides, the bioavailability in data set [3] amounted to 40%. The same compound gave an area under the curve AUC(0-t) at 24 h in data set [4] of 4210 ng·h/mL. In the data set with Splenocyte, the IC50 was 0.07 µg/mL (≈ 0.0568 µM).
`C/C=C/C[C@@H](C)[C@@H](O)[C@H]1C(=O)N[C@@H]([C@@H](C)O)C(=O)N(C)CC(=O)N(C)[C@@H](CC2CCCCC2)C(=O)N[C@@H](CC(C)C)C(=O)N(C)[C@@H](CC(C)C)C(=O)N[C@@H](C)C(=O)N[C@H](C)C(=O)N(C)[C@@H](CC(C)C)C(=O)N[C@@H](CC(C)C)C(=O)N(C)[C@@H](C(C)C)C(=O)N1C`: the EC50 in [6] is 0.086 µg/mL (≈ 0.0683 µM). In addition, the IC50 in the data set with Splenocyte is 0.065 µg/mL (≈ 0.0516 µM).
Regarding `C/C=C/C[C@@H](C)[C@@H](O)[C@H]1C(=O)N[C@@H]([C@@H](C)O)C(=O)N(C)CC(=O)N(C)[C@@H](c2ccccc2)C(=O)N[C@@H](CC(C)C)C(=O)N(C)[C@@H](CC(C)C)C(=O)N[C@@H](C)C(=O)N[C@H](C)C(=O)N(C)[C@@H](CC(C)C)C(=O)N[C@@H](CC(C)C)C(=O)N(C)[C@@H](C(C)C)C(=O)N1C`, the EC50 in data set [6] amounted to 0.12 µg/mL (≈ 0.0969 µM). Besides, in the data set on Splenocyte, the IC50 worked out at 0.8 µg/mL (≈ 0.646 µM).
Consider `C/C=C/C[C@@H](C)[C@@H](O)[C@H]1C(=O)N[C@@H]([C@@H](C)O)C(=O)N(C)CC(=O)N(C)[C@@H]([C@@H](C)CC)C(=O)N[C@@H](CC(C)C)C(=O)N(C)[C@@H](CC(C)C)C(=O)N[C@@H](C)C(=O)N[C@H](C)C(=O)N(C)[C@@H](CC(C)C)C(=O)N[C@@H](CC(C)C)C(=O)N(C)[C@@H](C(C)C)C(=O)N1C`, for which the values for the EC50 in [1], in [2] and in data set [6] were 2 µg/mL, 0.15 µg/mL and 0.15 µg/mL (≈ 0.123 µM), respectively. Also, the bioavailability in data set [3] was found to be 2.1%. The compound further displayed an AUC(0-t) at 24 h in [4] of 111 ng·h/mL. In data set [5], this compound yielded a solubility of 0.2 µg/mL (≈ 0.164 µM). Moreover, the IC50 in the data set with Splenocyte came out at 0.77 µg/mL (≈ 0.632 µM).
Take `C/C=C/C[C@@H](C)[C@@H](O)[C@H]1C(=O)N[C@@H]([C@@H](C)O)C(=O)N(C)[C@H](C)C(=O)N(C)[C@@H]([C@@H](C)OC)C(=O)N[C@@H](CC(C)C)C(=O)N(C)[C@@H](CC(C)C)C(=O)N[C@@H](C)C(=O)N[C@H](C)C(=O)N(C)[C@@H](CC(C)C)C(=O)N[C@@H](CC(C)C)C(=O)N(C)[C@@H](C(C)C)C(=O)N1C` (cyclo(A[dA][NMeL]L[NMeV][MeBmt]T[dNMeA][NMeT](Me)L[NMeL])): the EC50 came to 0.061 µg/mL in data set [1] and 0.04 µg/mL in data set [2]. Moreover, the bioavailability in data set [3] came to 36%. Besides, the AUC(0-t) at 24 h in data set [4] came to 16100 ng·h/mL. In addition, in [5], the solubility amounted to 117 µg/mL (≈ 94.8 µM). Further, the IC50 in the data set on Splenocyte was 0.97 µg/mL (≈ 0.786 µM). The outcome with Hepatitis C virus [7] and in the data set on Hepatitis C virus [8] was Active.
In the case of `C/C=C/C[C@@H](C)[C@@H](O)[C@H]1C(=O)N[C@@H]([C@@H](C)O)C(=O)N(C)[C@H](C)C(=O)N(C)[C@@H](C2CCCCC2)C(=O)N[C@@H](CC(C)C)C(=O)N(C)[C@@H](CC(C)C)C(=O)N[C@@H](C)C(=O)N[C@H](C)C(=O)N(C)[C@@H](CC(C)C)C(=O)N[C@@H](CC(C)C)C(=O)N(C)[C@@H](C(C)C)C(=O)N1C`, the EC50 in data set [6] was found to be 0.042 µg/mL (≈ 0.0334 µM). In addition, the IC50 in the data set with Splenocyte worked out at 0.35 µg/mL (≈ 0.278 µM).
As for `C/C=C/C[C@@H](C)[C@@H](O)[C@H]1C(=O)N[C@@H]([C@@H](C)O)C(=O)N(C)CC(=O)N(C)[C@@H](CC(C)C)C(=O)N[C@@H](CC(C)C)C(=O)N(C)[C@@H](CC(C)C)C(=O)N[C@@H](C)C(=O)N[C@H](C)C(=O)N(C)[C@@H](CC(C)C)C(=O)N[C@@H](CC(C)C)C(=O)N(C)[C@@H](C(C)C)C(=O)N1C` (cyclo(A[dA][NMeL]L[NMeV][MeBmt]T[Sar][NMeL]L[NMeL])), the EC50 in data set [1] turned out to be 0.37 µg/mL; in data set [2] it was 0.096 µg/mL; in data set [6] it was 0.096 µg/mL (≈ 0.0788 µM). Further, in [3], the bioavailability came to 4.3%. Besides, the area under the curve AUC(0-t) at 24 h in [4] came out at 140 ng·h/mL. Besides, the concentration in solution in data set [5] (solubility) was 6.5 µg/mL (≈ 5.33 µM). Further, the IC50 in the data set on Splenocyte was 0.026 µg/mL (≈ 0.0213 µM).
Regarding `C/C=C/C[C@@H](C)[C@@H](O)[C@H]1C(=O)N[C@@H]([C@@H](C)O)C(=O)N(C)[C@H](C)C(=O)N(C)[C@@H]([C@@H](C)CC)C(=O)N[C@@H](CC(C)C)C(=O)N(C)[C@@H](CC(C)C)C(=O)N[C@@H](C)C(=O)N[C@H](C)C(=O)N(C)[C@@H](CC(C)C)C(=O)N[C@@H](CC(C)C)C(=O)N(C)[C@@H](C(C)C)C(=O)N1C`, the EC50 in data set [1] was 0.05 µg/mL; in data set [2], 0.039 µg/mL; in data set [6], 0.039 µg/mL (≈ 0.0316 µM). This compound gave a bioavailability in [3] of 49%. This compound also gave an AUC(0-t) at 24 h in data set [4] of 13300 ng·h/mL. The solubility in [5] was < 0.1 µg/mL. In the data set on Splenocyte, the IC50 amounted to 1.1 µg/mL (≈ 0.892 µM).
In the case of `C/C=C/C[C@@H](C)[C@@H](O)[C@H]1C(=O)N[C@@H]([C@@H](C)O)C(=O)N(C)CC(=O)N(C)[C@@H](C2CCCCC2)C(=O)N[C@@H](CC(C)C)C(=O)N(C)[C@@H](CC(C)C)C(=O)N[C@@H](C)C(=O)N[C@H](C)C(=O)N(C)[C@@H](CC(C)C)C(=O)N[C@@H](CC(C)C)C(=O)N(C)[C@@H](C(C)C)C(=O)N1C`, the EC50 in data set [6] turned out to be 0.063 µg/mL (≈ 0.0506 µM). Further, in the data set with Splenocyte, the IC50 is 0.41 µg/mL (≈ 0.329 µM).
Regarding `C/C=C/C[C@@H](C)[C@@H](O)[C@H]1C(=O)N[C@@H]([C@@H](C)O)C(=O)N(C)[C@H](C)C(=O)N(C)[C@@H]([C@@H](C)OO)C(=O)N[C@@H](CC(C)C)C(=O)N(C)[C@@H](CC(C)C)C(=O)N[C@@H](C)C(=O)N[C@H](C)C(=O)N(C)[C@@H](CC(C)C)C(=O)N[C@@H](CC(C)C)C(=O)N(C)[C@@H](C(C)C)C(=O)N1C`, the EC50 is 0.086 µg/mL in data set [1] and 0.061 µg/mL in data set [2]. Moreover, the bioavailability in [3] came to 32%. In data set [4], this compound displayed an AUC(0-t) at 24 h of 5680 ng·h/mL. Moreover, the solubility in data set [5] is > 122 µg/mL. For the same compound, in the data set with Splenocyte, the IC50 worked out at 1.9 µg/mL (≈ 1.54 µM).

For the origin of these results see ChEMBL document CHEMBL4622941, “Discovery of ASP5286: A novel non-immunosuppressive cyclophilin inhibitor for the treatment of HCV” (Bioorg Med Chem Lett, 2020).
